Experimental findings from patent US20180360924A1, “TELOMERE EXTENSION AND ANTI-INFLAMMATORY AGENTS FOR CELL REGENERATION” (THE METHODIST HOSPITAL SYSTEM, priority 2015, published 2018) are described below.

The test deals with Human chondrocytes. As to the kind of experiment: Telomere length in chondrocytes, relative quantification for the telomeric repeat (T/S-ratio). In kind it is cell-based. Particulars: LFA transfection, n=3, P65i high.

In the case of “RelA/NFkB p65 [pSer529, pSer536] inhibitor peptide [P65i]”, the “% increase in TL” value is reported as 4.0% and the T/S-ratio is listed as 1.01.
